Results from ChEMBL document CHEMBL1156607, “A new multi-gram synthetic route to labeling precursors for the D(2/3) PET agent 18F-fallypride” (Bioorg Med Chem Lett, 2008).

Molecular target: D(2) dopamine receptor (Homo sapiens, UniProt P14416)
Test: Antagonist activity at dopamine D2 receptor
Assay type: functional

D(2) dopamine receptor, sequence (P14416 whole entry): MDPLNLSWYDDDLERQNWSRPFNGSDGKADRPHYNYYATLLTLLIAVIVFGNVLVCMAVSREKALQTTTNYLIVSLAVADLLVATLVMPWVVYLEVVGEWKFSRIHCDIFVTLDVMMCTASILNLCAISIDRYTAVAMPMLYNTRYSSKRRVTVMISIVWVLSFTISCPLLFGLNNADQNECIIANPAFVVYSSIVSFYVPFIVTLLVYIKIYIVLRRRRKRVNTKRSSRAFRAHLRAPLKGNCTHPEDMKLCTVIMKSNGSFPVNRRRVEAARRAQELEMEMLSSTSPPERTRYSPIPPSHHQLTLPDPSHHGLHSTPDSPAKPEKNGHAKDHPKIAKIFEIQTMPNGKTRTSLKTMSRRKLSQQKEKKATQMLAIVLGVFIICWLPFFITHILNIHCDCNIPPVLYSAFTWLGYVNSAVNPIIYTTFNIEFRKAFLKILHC

Row | IC50 | SMILES
1 | 17.1 nM | C=CCN1CCC[C@H]1CNC(=O)c1cc(CCCCl)cc(OC)c1OC
2 | 5 nM | C=CCN1CCC[C@H]1CNC(=O)c1cc(CCCF)cc(OC)c1OC [FALLYPRIDE]
